One may read the IC50 as the concentration needed to halve the response being measured.

This note sets out measurements from ChEMBL document CHEMBL1139767, “Dragon method for finding novel tyrosinase inhibitors: Biosilico identification and experimental in vitro assays” (Eur J Med Chem, 2007).

The target in the test is T1, Tyrosinase (Agaricus bisporus, UniProt O42713).
T1 sequence (O42713 whole entry): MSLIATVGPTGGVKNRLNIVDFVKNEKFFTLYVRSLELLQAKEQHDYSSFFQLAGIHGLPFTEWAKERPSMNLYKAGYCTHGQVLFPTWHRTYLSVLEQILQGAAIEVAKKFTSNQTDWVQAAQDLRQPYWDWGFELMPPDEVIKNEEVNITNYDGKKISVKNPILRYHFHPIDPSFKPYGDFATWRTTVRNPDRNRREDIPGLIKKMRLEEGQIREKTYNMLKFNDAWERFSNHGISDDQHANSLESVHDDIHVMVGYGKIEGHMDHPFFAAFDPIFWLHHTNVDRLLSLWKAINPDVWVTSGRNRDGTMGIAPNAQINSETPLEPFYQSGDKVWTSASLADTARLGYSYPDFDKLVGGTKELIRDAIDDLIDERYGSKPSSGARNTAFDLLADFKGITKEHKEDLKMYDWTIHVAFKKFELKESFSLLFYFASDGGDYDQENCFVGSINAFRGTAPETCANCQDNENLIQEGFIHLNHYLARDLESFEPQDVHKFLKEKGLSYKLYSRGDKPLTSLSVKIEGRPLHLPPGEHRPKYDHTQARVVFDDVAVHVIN
Description: Inhibition of mashroom tyrosinase

Turning to `O=[N+]([O-])c1ccc(S(=O)(=O)N2CCC(N3CCCCC3)CC2)cc1`, 111 µM corresponded to half-maximal inhibition (IC50).
With `C1CCN(C2CCNCC2)CC1` [[1,4']Bipiperidinyl], the IC50 is 111 µM.
As for `c1ccc(OCCCN2CCC(N3CCCCC3)CC2)cc1`, the midpoint of inhibition, the IC50, lay at 19.5 µM.
Molecule `CC(=O)N1CCC(N2CCCCC2)CC1` returned an IC50 of 29.9 µM.
On to `Cc1ccc(CN2CCC(N3CCCCC3)CC2)cc1`, for which it took 1.72 µM to reach half-maximal inhibition (IC50).
